Source: ChEMBL document CHEMBL1201862, “PubChem BioAssay data set” (2004)
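Step 1: Grow cells in 96-well plates. Step 2: Expose to compound for 48 hours at 5 concentrations. Step 3: Interpolate endpoints linearly; if unreached, use highest concentration. GI50 is the concentration that inhibits growth by half.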 Activity calls are given as the source filed them. Rule as the data show it: active = GI50 up to about 1.1 µM and inactive = higher.

Experiments:
Experiment in all cases: growth of human tumour cells (NCI), 48 h
[1] = test system: 786-0
[2] = test system: A498
[3] = test system: A549
[4] = test system: ACHN
[5] = test system: BT-549
[6] = test system: CCRF-CEM
[7] = test system: DU-145
[8] = test system: EKVX
[9] = test system: HCC 2998
[10] = test system: HCT-116
[11] = test system: HCT-15
[12] = test system: HL-60
[13] = test system: HOP-62
[14] = test system: HOP-92
[15] = test system: HT-29
[16] = test system: Hs-578T
[17] = test system: IGROV-1
[18] = test system: K562
[19] = test system: KM12
[20] = test system: LOX IMVI
[21] = test system: M14
[22] = test system: MDA-MB-231
[23] = test system: MDA-MB-435
[24] = test system: MDA-N
[25] = test system: MOLT-4
[26] = test system: Malme-3M
[27] = test system: NCI-H226
[28] = test system: NCI-H23
[29] = test system: NCI-H460
[30] = test system: NCI-H522
[31] = test system: NCI/ADR-RES
[32] = test system: OVCAR-3
[33] = test system: OVCAR-5
[34] = test system: OVCAR-8
[35] = test system: PC-3
[36] = test system: RPMI-8226
[37] = test system: RXF 393
[38] = test system: SF-268
[39] = test system: SF-295
[40] = test system: SK-MEL-28
[41] = test system: SK-MEL-2
[42] = test system: SK-MEL-5
[43] = test system: SN12C
[44] = test system: SNB-19
[45] = test system: SR
[46] = test system: SW-620
[47] = test system: T47D
[48] = test system: TK-10
[49] = test system: U-251
[50] = test system: UACC-257
[51] = test system: UACC-62
[52] = test system: UO-31
[53] = test system: CAKI-1
[54] = test system: COLO 205
[55] = test system: MCF7
[56] = test system: OVCAR-4
[57] = test system: SF-539
[58] = test system: SK-OV-3
[59] = test system: SNB-75

In the case of `Cc1cc(Cl)nc(NC(=O)CSc2ccc(Cl)cc2)n1`, the GI50 [1] is reported as > 100 µM (inactive), the GI50 [2] is reported as 72.9 µM (inactive) and the GI50 [3] is reported as > 100 µM (inactive). The GI50 [4] was > 100 µM (inactive), the GI50 [5] was > 100 µM (inactive) and the GI50 [6] was > 100 µM (inactive). The GI50 [7] was > 100 µM (inactive), the GI50 [8] was > 100 µM (inactive) and the GI50 [9] was > 100 µM (inactive). For the same compound, the GI50 [10] was > 100 µM (inactive), the GI50 [11] was over 100 µM and the GI50 [12] was > 100 µM (inactive). For the same compound, the GI50 [13] was 79.1 µM (inactive), the GI50 [14] was > 100 µM (inactive) and the GI50 [15] was > 100 µM (inactive). The GI50 [16] was 77.6 µM (inactive), the GI50 [17] was > 100 µM (inactive) and the GI50 [18] was > 100 µM (inactive). The GI50 [19] was > 100 µM (inactive), the GI50 [20] was > 100 µM (inactive) and the GI50 [21] was > 100 µM (inactive). The GI50 [22] was > 100 µM (inactive), the GI50 [23] was > 100 µM (inactive) and the GI50 [24] was > 100 µM (inactive). The GI50 [25] was > 100 µM (inactive), the GI50 [26] was 64.7 µM (inactive) and the GI50 [27] was 22.1 µM (inactive). The GI50 [28] was > 100 µM (inactive), the GI50 [29] was > 100 µM (inactive) and the GI50 [30] was 95.7 µM (inactive). For the same compound, the GI50 [31] was > 100 µM (inactive), the GI50 [32] was > 100 µM (inactive) and the GI50 [33] was > 100 µM (inactive). The GI50 [34] was > 100 µM (inactive), the GI50 [35] was > 100 µM (inactive) and the GI50 [36] was 38.6 µM (inactive). The GI50 [37] was > 100 µM (inactive), the GI50 [38] was > 100 µM (inactive) and the GI50 [39] was > 100 µM (inactive). The GI50 [40] was > 100 µM (inactive), the GI50 [41] was > 100 µM (inactive) and the GI50 [42] was > 100 µM (inactive). The GI50 [43] was > 100 µM (inactive), the GI50 [44] was > 100 µM (inactive) and the GI50 [45] was > 100 µM (inactive). The GI50 [46] was > 100 µM (inactive), the GI50 [47] was > 100 µM (inactive) and the GI50 [48] was > 100 µM (inactive). For the same compound, the GI50 [49] was > 100 µM (inactive), the GI50 [50] was > 100 µM (inactive) and the GI50 [51] was > 100 µM (inactive). For the same compound, the GI50 [52] was > 100 µM (inactive).
For `CCn1c2ccccc2n2c(=O)c3c(c(C#N)c12)CCCC3`, the GI50 [1] was > 100 µM (inactive), the GI50 [2] was > 100 µM (inactive) and the GI50 [3] was > 100 µM (inactive). For the same compound, the GI50 [4] was > 100 µM (inactive), the GI50 [5] was > 100 µM (inactive) and the GI50 [53] was > 100 µM (inactive). The GI50 [6] was > 100 µM (inactive), the GI50 [54] was > 100 µM (inactive) and the GI50 [7] was > 100 µM (inactive). For the same compound, the GI50 [8] was > 100 µM (inactive), the GI50 [9] was > 100 µM (inactive) and the GI50 [10] was > 100 µM (inactive). The GI50 [11] was over 100 µM, the GI50 [12] was > 100 µM (inactive) and the GI50 [14] was > 100 µM (inactive). The GI50 [15] was > 100 µM (inactive), the GI50 [16] was > 100 µM (inactive) and the GI50 [17] was > 100 µM (inactive). For the same compound, the GI50 [18] was > 100 µM (inactive), the GI50 [19] was > 100 µM (inactive) and the GI50 [20] was > 100 µM (inactive). For the same compound, the GI50 [21] was > 100 µM (inactive), the GI50 [55] was > 100 µM (inactive) and the GI50 [22] was > 100 µM (inactive). For the same compound, the GI50 [23] was > 100 µM (inactive), the GI50 [24] was > 100 µM (inactive) and the GI50 [25] was > 100 µM (inactive). For the same compound, the GI50 [26] was > 100 µM (inactive), the GI50 [27] was > 100 µM (inactive) and the GI50 [28] was > 100 µM (inactive). For the same compound, the GI50 [29] was > 100 µM (inactive), the GI50 [30] was > 100 µM (inactive) and the GI50 [31] was > 100 µM (inactive). The GI50 [32] was > 100 µM (inactive), the GI50 [56] was > 100 µM (inactive) and the GI50 [33] was > 100 µM (inactive). The GI50 [34] was > 100 µM (inactive), the GI50 [35] was > 100 µM (inactive) and the GI50 [38] was > 100 µM (inactive). The GI50 [39] was > 100 µM (inactive), the GI50 [57] was > 100 µM (inactive) and the GI50 [40] was > 100 µM (inactive). The GI50 [41] was > 100 µM (inactive), the GI50 [42] was > 100 µM (inactive) and the GI50 [58] was > 100 µM (inactive). For the same compound, the GI50 [43] was > 100 µM (inactive), the GI50 [44] was > 100 µM (inactive) and the GI50 [46] was > 100 µM (inactive). For the same compound, the GI50 [47] was > 100 µM (inactive), the GI50 [48] was > 100 µM (inactive) and the GI50 [49] was > 100 µM (inactive). The GI50 [50] was > 100 µM (inactive), the GI50 [51] was > 100 µM (inactive) and the GI50 [52] was 93.5 µM (inactive).
With `N#CSCc1cccc(Nc2cc(=O)[nH]c(=O)[nH]2)c1` the GI50 [1] was > 100 µM (inactive), the GI50 [2] was > 100 µM (inactive) and the GI50 [3] was > 100 µM (inactive). For the same compound, the GI50 [4] was > 100 µM (inactive), the GI50 [5] was 38 µM (inactive) and the GI50 [53] was > 100 µM (inactive). The GI50 [54] was 37.2 µM (inactive), the GI50 [8] was > 100 µM (inactive) and the GI50 [9] was 43.3 µM (inactive). The GI50 [10] was 40.6 µM (inactive), the GI50 [11] was 56.6 µM and the GI50 [13] was > 100 µM (inactive). For the same compound, the GI50 [14] was 14.8 µM (inactive), the GI50 [15] was 37.2 µM (inactive) and the GI50 [16] was 46.8 µM (inactive). The GI50 [17] was > 100 µM (inactive), the GI50 [18] was 30.5 µM (inactive) and the GI50 [19] was 97.1 µM (inactive). For the same compound, the GI50 [20] was 92.3 µM (inactive), the GI50 [21] was 52 µM (inactive) and the GI50 [55] was 7.23 µM (inactive). For the same compound, the GI50 [22] was > 100 µM (inactive), the GI50 [23] was > 100 µM (inactive) and the GI50 [24] was 52.4 µM (inactive). The GI50 [26] was 31.8 µM (inactive), the GI50 [27] was 48.3 µM (inactive) and the GI50 [28] was > 100 µM (inactive). The GI50 [29] was > 100 µM (inactive), the GI50 [30] was 39.7 µM (inactive) and the GI50 [31] was > 100 µM (inactive). For the same compound, the GI50 [32] was 54.7 µM (inactive), the GI50 [56] was 31.3 µM (inactive) and the GI50 [33] was > 100 µM (inactive). For the same compound, the GI50 [34] was 72.1 µM (inactive), the GI50 [35] was > 100 µM (inactive) and the GI50 [36] was 47.9 µM (inactive). For the same compound, the GI50 [37] was > 100 µM (inactive), the GI50 [38] was 28.8 µM (inactive) and the GI50 [39] was > 100 µM (inactive). For the same compound, the GI50 [57] was 33 µM (inactive), the GI50 [40] was 57.8 µM (inactive) and the GI50 [41] was > 100 µM (inactive). The GI50 [42] was 26.9 µM (inactive), the GI50 [58] was > 100 µM (inactive) and the GI50 [43] was > 100 µM (inactive). The GI50 [44] was > 100 µM (inactive), the GI50 [59] was > 100 µM (inactive) and the GI50 [46] was 55.6 µM (inactive). The GI50 [47] was > 100 µM (inactive), the GI50 [48] was > 100 µM (inactive) and the GI50 [49] was 94.4 µM (inactive). For the same compound, the GI50 [50] was 85.1 µM (inactive), the GI50 [51] was 26.7 µM (inactive) and the GI50 [52] was > 100 µM (inactive).
